In patent US11155557B2, “Pyrazolopyrimidine compounds and methods of use thereof” (Genentech, Inc., priority 2016, dated 2021):
Where two headings read alike, the source gives them in different places.

Key:
[1] = biological target: isolated recombinant JAK2 kinase domain (Homo sapiens (Human), UniProt O60674); assay: JAK2 enzyme assay (Caliper LabChip, Ki)
Protocol: JAK Enzyme Assays were Carried Out as Follows:
The activity of the isolated recombinant JAK1 and JAK2 kinase domain was measured by monitoring phosphorylation of a peptide derived from JAK3 ([sequence] fluorescently labeled on the N-terminus with 5-carboxyfluorescein) using the Caliper LabChip R technology (Caliper Life Sciences, Hopkinton, Mass.). […] After termination of the kinase reaction, the proportion of phosphorylated product was determined as a fraction of total peptide substrate using the Caliper LabChip R 3000 according to the manufacturer's specifications.

[2] = biological target: isolated recombinant JAK1 kinase domain (Homo sapiens (Human), UniProt P23458); assay: JAK1 enzyme assay (Caliper LabChip, Ki); type: biochemical
Protocol: The activity of the isolated recombinant JAK1 and JAK2 kinase domain was measured by monitoring phosphorylation of a peptide derived from JAK3 ([…] fluorescently labeled on the N-terminus with 5-carboxyfluorescein) using the Caliper LabChip R technology (Caliper Life Sciences, Hopkinton, Mass.).

[3] = system: JAK1-dependent STAT6 phosphorylation in BEAS-2B human bronchial epithelial cells; assay: JAK1 pathway assay: IL-13 stimulated STAT6 phosphorylation in BEAS-2B cells; type: cell-based; details: Homo sapiens, BEAS-2B, read-out: IL-13 p-STAT6 BEAS-2B IC50
How it was run: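 BEAS-2B bronchial epithelial cells plated one day before, run in complete growth medium. Phospho-STAT6 in lysates measured by MesoScale Discovery; EC50 reported.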

[4] = BEAS-2B cells, IL-13 stimulation

isolated recombinant JAK1 kinase domain, sequence (P23458 875-1153): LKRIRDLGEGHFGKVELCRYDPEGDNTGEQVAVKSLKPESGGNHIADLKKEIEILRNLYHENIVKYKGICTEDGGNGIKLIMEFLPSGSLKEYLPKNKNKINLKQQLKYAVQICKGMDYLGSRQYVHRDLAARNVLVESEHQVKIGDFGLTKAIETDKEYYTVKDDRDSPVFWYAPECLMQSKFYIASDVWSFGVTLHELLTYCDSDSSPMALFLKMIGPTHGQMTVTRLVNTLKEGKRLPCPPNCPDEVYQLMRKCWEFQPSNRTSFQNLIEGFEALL
isolated recombinant JAK2 kinase domain, sequence (O60674 849-1124): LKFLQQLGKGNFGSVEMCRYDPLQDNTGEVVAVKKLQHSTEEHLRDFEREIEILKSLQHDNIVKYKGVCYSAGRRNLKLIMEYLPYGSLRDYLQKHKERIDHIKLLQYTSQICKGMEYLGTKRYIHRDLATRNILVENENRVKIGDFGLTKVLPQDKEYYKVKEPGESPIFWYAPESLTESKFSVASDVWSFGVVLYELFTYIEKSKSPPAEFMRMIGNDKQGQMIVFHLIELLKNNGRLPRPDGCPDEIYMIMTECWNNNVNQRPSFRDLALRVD

| Compound | Ki ([1]; read-out: JAK2 Ki) [nM] | Ki [2] [nM] | IC50 [3, 4] [nM] | Ki [1] [nM] | IC50 [3] [nM] |
| --- | --- | --- | --- | --- | --- |
| COC(=O)Cn1cc(NC(=O)c2cnn3cccnc23)c(-c2cc3sc(C(N)=O)cc3cc2OC(F)F)n1 [Example 92, methyl 2-[3-[2-carbamoyl-5-(difluoromethoxy)benzothiophen-6-yl]-4-(pyrazolo[1,5-a]pyrimidine-3-carbonylamino)pyrazol-1-yl]acetate] | 0.2 | 0.22 | 92 | – | – |
| O=C(Nc1cn(CC(=O)N2CCC(O)CC2)nc1-c1cc2c(cc1OC(F)F)NCCO2)c1cnn2cccnc12 [Example 48, N-[3-[6-(difluoromethoxy)-3,4-dihydro-2H-1,4-benzoxazin-7-yl]-1-[2-(4-hydroxy-1-piperidyl)-2-oxo-ethyl]pyrazol-4-yl]pyrazolo[1,5-a]pyrimidine-3-carboxamide] | 0.51 | 0.3 | > 1000 | – | – |
| O=C(Nc1cn(CC(=O)N2CCCCC2)nc1-c1cc2c(cc1OC(F)F)NCCO2)c1cnn2cccnc12 [Example 6, N-[3-[6-(difluoromethoxy)-3,4-dihydro-2H-1,4-benzoxazin-7-yl]-1-[2-oxo-2-(piperidin-1-yl)ethyl]-1H-pyrazol-4-yl]pyrazolo[1,5-a]pyrimidine-3-carboxamide] | 0.31 | 0.2 | 17 | – | – |
| O=C(Nc1c[nH]nc1-c1cc2cn[nH]c2cc1OC(F)F)c1cnn2cccnc12 [Example 21, N-(3-(6-(difluoromethoxy)-1H-indazol-5-yl)-1H-pyrazol-4-yl)pyrazolo[1,5-a]pyrimidine-3-carboxamide] | – | 0.07 | 37 | 0.05 | – |
| N#CCn1cc(NC(=O)c2cnn3cccnc23)c(-c2cc3c(cc2OC(F)F)NCCO3)n1 [Example 144, N-[1-(cyanomethyl)-3-[6-(difluoromethoxy)-3,4-dihydro-2H-1,4-benzoxazin-7-yl]pyrazol-4-yl]pyrazolo[1,5-a]pyrimidine-3-carboxamide] | 0.11 | 0.14 | 7 | – | – |
| NC(=O)c1cc2cc(OC(F)F)c(-c3nn(CC(=O)N4CCC(=O)CC4)cc3NC(=O)c3cnn4cccnc34)cc2s1 [Example 62, N-[3-[2-carbamoyl-5-(difluoromethoxy)benzothiophen-6-yl]-1-[2-oxo-2-(4-oxo-1-piperidyl)ethyl]pyrazol-4-yl]pyrazolo[1,5-a]pyrimidine-3-carboxamide] | 0.24 | 0.38 | – | – | > 333 |
| CN(C)CCn1cc(NC(=O)c2cnn3cccnc23)c(-c2cc3c(cc2OC(F)F)NC(=O)CS3)n1 [Example 83, N-[3-[6-(difluoromethoxy)-3-oxo-4H-1,4-benzothiazin-7-yl]-1-[2-(dimethylamino)ethyl]pyrazol-4-yl]pyrazolo[1,5-a]pyrimidine-3-carboxamide] | 0.14 | 0.23 | 14 | – | – |
| O=C(Nc1c[nH]nc1-c1cc2c(cc1OC(F)F)OCCO2)c1cnn2cccnc12 [Example 150, N-(3-(7-(difluoromethoxy)-2,3-dihydrobenzo[b][1,4]dioxin-6-yl)-1H-pyrazol-4-yl)pyrazolo[1,5-a]pyrimidine-3-carboxamide] | 0.61 | 1.65 | 61 | – | – |
| N#CCn1cc(NC(=O)c2cnn3cccnc23)c(-c2cc3c(cc2OC(F)F)NCCS3)n1 [Example 140, N-[1-(cyanomethyl)-3-[6-(difluoromethoxy)-3,4-dihydro-2H-1,4-benzothiazin-7-yl]pyrazol-4-yl]pyrazolo[1,5-a]pyrimidine-3-carboxamide] | 0.06 | 0.09 | 4 | – | – |
| CC1CNc2cc(OC(F)F)c(-c3nn(CCN)cc3NC(=O)c3cnn4cccnc34)cc2S1 (racemic) [Example 80, N-[1-(2-aminoethyl)-3-[6-(difluoromethoxy)-2-methyl-3,4-dihydro-2H-1,4-benzothiazin-7-yl]pyrazol-4-yl]pyrazolo[1,5-a]pyrimidine-3-carboxamide] | 0.17 | 0.16 | 13 | – | – |
